Laboratory results as given in patent US5168102A, “Endocrine manipulation to improve body composition of poultry” (priority 1990, dated 1992).
No end group written: not given here.

Key:
[1] = at the doses tested
From the text: Referring now to broiler chickens as a benchmark for the beneficial effects of this invention, it must be noted that these chickens grow from a weight of 30 to 50 grams at hatching to about 1.5-3 or even as much as 5 kilograms of body weight at market age. Of this market weight, 15-20 wt.-% is protein, 2-3 wt.-% is inorganic (showing up as ash in proximate analysis of body composition), and more than 10 wt.-% (e.g. 10-20 wt.-%) is fat, which means that the protein:fat ratio (by weight) is likely to be at or below 1.5:1 and certainly well below 2:1.

[2] = Example 1: growth and feed efficiency of broiler cockerels fed thyroid-active substances with or without daily ncGH injection; assay type: in vivo, broiler cockerels (Ross X Arbor Acre strain); conditions: for BW (body weight): mean ±SEM; for ADFC (average daily feed consumption) / ADG (average daily weight gain) / FTG (feed-to-gain ratio): 21 days
From the text: (§1) The purpose of this study was to determine the effect manipulating blood levels of thyroid hormones and/or growth hormone on growth performance and body composition of broiler chickens. […] Purified natural chicken growth hormone (ncGH) was obtained from the Research and Education Center, Harbor-UCLA Medical Center, Torrance, Calif. […] The premix (200 g) was then used to prepare 50 kg batches of each experimental diet according to the formula for broiler-finisher ration described in Table 1. The diet containing 0.5% PTU was prepared by mixing 250 g of PTU into 49.75 kg of the basal ration (Table 1).
(§2) Broiler cockerels (Ross X Arbor Acre strain) were raised to 3 weeks-of-age in a battery-brooder and then transferred to wire grow-out cages (4 birds/pen) held in two controlled-environment rooms (10 pens/room). Beginning at 3 weeks of age, eight birds (2 pens of 4 birds) were randomly assigned to each of 10 treatments. The chickens were provided the experimental diets and water ad libitum. […] For injection, the ncGH was reconstituted in sterile 0.025M sodium bicarbonate buffer (pH 9.8). The 10 treatments were administered for 21 days (i.e., from 3 to 6 weeks of age).
(§3) Measurement of body weight and feed consumption at weekly intervals allowed calculation of the average daily gain (ADG, g/bird/day), average daily feed consumption (ADFC, g/bird/day) and the feed-to-gain ratio (FIG, kg feed/kg gain) over the 21 day experimental period. Blood samples were taken each week (4, 5, and 6 weeks) just before (pre-injection) and 4 hours post-injection of ncGH. […] At the conclusion of the study, birds were killed and the carcasses frozen for proximate analysis. The frozen carcasses were ground in a meat grinder and aliquots of each ground carcass taken for determination of moisture, protein, fat and ash by established analytical procedures (Official Method of Analysis, Edition 13, W. Horwitz ed., Association of Official Analytical Chemist, Washington, D.C., 1980). Body composition data are presented as a percent of live weight at 6 weeks-of-age. Least squares regression analysis was used to test for significant differences (P<0.05) due treatment.

[3] = Example 1: body composition (proximate analysis of carcass); assay type: in vivo, broiler cockerels (Ross X Arbor Acre strain); conditions: for Body composition: Ash / Body composition: Fat / Body composition: Protein / Body composition: Water: N = 8
From the text: as §1, §2, §3

[4] = Example 1: plasma hormone concentrations (radioimmunoassays); conditions: for average plasma T3 level: Group 1; for I/G Molar Ratio / plasma Glucagon (G) / plasma Insulin (I): N = 24
From the text: as §1, §2, §3

[5] = hypothyroid state; cited from earlier work
receptor = conditions: cited from earlier work
[6] = supplemented diets; cited from earlier work
[7] = i.v., 21 days, cited from earlier work; for growth rate and feed efficiency: TRH 1 or 10 μg/kg/day, GRF 10 μg/kg/day, alone or in combination
[8] = injected; commercial preparations from cattle and swine pancreases; cited from earlier work
[9] = Example 2: growth and feed efficiency, dietary T3 and ncGH injection; assay type: in vivo, broiler cockerels (Ross X Arbor Acre)
Experimental: (§4) Forty-eight 3-week-old broiler cockerels (Ross X Arbor Acre) were randomly divided into four treatment groups that contained three pens of four birds. The birds were housed in a controlled-environment room under a 20 hour light/4 hour dark cycle with feed and water provided ad libitum.
(§5) The preparation of ncGH used in this study was from the same lot used in Example 1.
(§6) Body weights and feed consumption was determined at weekly intervals although the ADG, ADFC and FTG ratio was determined over the 21 day period. […] At the conclusion of the study (6 weeks-of-age), birds were killed and the abdominal fat removed and weighed. The liver and abdominal fat were returned to the carcass which was frozen for proximate analysis as described in […]

[10] = Example 2: final body weight, liver, abdominal fat and body composition; assay type: in vivo, broiler cockerels (Ross X Arbor Acre)
Experimental: as §4, §5, §6

[11] = Example 2: plasma hormone concentrations; assay type: in vivo, broiler cockerels (Ross X Arbor Acre); conditions: 4 hours post-injection of 100 μg ncGH/kg BW at 4, 5 and 6 weeks
Experimental: as §4, §5, §6

[12] = injection, finishing pigs; cited from earlier work
[13] = 1 ppm T3, 1 ppm T4, 5 ppm TRH or 0.5% PTU in feed, 3 to 6 weeks of age, Group 1
[14] = Group 1, dietary, 6 weeks-of-age
[15] = 1 ppm T3 and/or ncGH 100 μg/kg/day, 21 days
[16] = Group 2, with daily ncGH injection

## CCCc1cc(=O)[nH]c(=S)[nH]1 [PTU, 6-N-propyl-2-thiouracil]
[1]
  effect on protein:fat ratio: seemed to decrease the protein:fat ratio
[2]; [13]
  BW (body weight): 1.42 ± .05 kg
[2]; Group 1, dietary
  effect on growth rate and feed efficiency: depressed growth rate and reduced feed conversion
  ADFC (average daily feed consumption): 92.3 ± 7.9 g/bird/day
  ADG (average daily weight gain): 39.2 ± 4.0 g/bird/day
  FTG (feed-to-gain ratio): 2.36 ± .04 kg feed/kg gain
[2]; vs birds fed CF or thyroid hormones (P<0.05)
  final body weight, reduction: 18%
[3]; [14]
  Body composition: Ash: 2.17 ± .06 % BW
  Body composition: Fat: 18.2 ± .80 % BW
  Body composition: Protein: 17.2 ± .20 % BW
  Body composition: Water: 61.9 ± .73 % BW
[3]; vs CF group
  body fat content, increase: 50%
  effect on body protein, water and ash: at the expense of body ash, protein and water
[4]
  average plasma T3 level: 1.5 ng/mL
[4]; Group 1, dietary
  I/G Molar Ratio: 6.35
  plasma Glucagon (G): 225 pg/mL
  plasma Insulin (I): 2349 pg/mL
[4]; vs CF birds (P<0.05)
  average plasma T3 level, reduction: 53%
[4]; vs CF group (P<0.05)
  plasma I/G molar ratio, fold greater: 2.9 times
[4]; vs CF treatment
  plasma GH level, fold higher: 1.9 times
[4]; vs average of CF and TRH treatments (P<0.05)
  plasma T4 level, reduction: 76%
[5]
  body fat: increased accumulation of body fat
  plasma insulin levels: elevated plasma insulin levels

## N[C@@H](Cc1cc(I)c(Oc2cc(I)c(O)c(I)c2)c(I)c1)C(=O)O [T4, 3-[4-(4-hydroxy-3,5-diiodophenoxy)-3,5-diiodophenyl]-L-alanine]
receptor
  metabolic activity of thyroid hormones: without significant metabolic activity
[2]; [13]
  BW (body weight): 1.76 ± .04 kg
[2]; Group 1, dietary
  ADFC (average daily feed consumption): 108.4 ± 3.6 g/bird/day
  ADG (average daily weight gain): 51.9 ± 3.3 g/bird/day
[3]; [14]
  Body composition: Ash: 2.35 ± .03 % BW
  Body composition: Fat: 12.9 ± .41 % BW
  Body composition: Protein: 18.2 ± .31 % BW
  Body composition: Water: 65.8 ± .29 % BW
[4]
  average plasma T3 level: 3 ng/mL
[4]; Group 1, dietary
  plasma Glucagon (G): 318 pg/mL
  plasma Insulin (I): 776 pg/mL
[6]
  depressed growth rate in dwarf strains: restored to normal

## NC(=O)[C@@H]1CCCN1C(=O)[C@H](Cc1c[nH]cn1)NC(=O)[C@@H]1CCC(=O)N1 [TRH, L-pyroglutamyl-L-histidyl-L-prolinamide]
[1]
  effect on protein:fat ratio: seemed to decrease the protein:fat ratio
[7]
  plasma GH levels: elevated plasma GH levels
  growth rate and feed efficiency: failed to stimulate growth rate or improve feed efficiency
[2]; [13]
  BW (body weight): 1.85 ± .08 kg
[2]; Group 1, dietary
  ADFC (average daily feed consumption): 125.2 ± 5.5 g/bird/day
  ADG (average daily weight gain): 56.5 ± 0.2 g/bird/day
  FTG (feed-to-gain ratio): 2.21 ± 0.1 kg feed/kg gain
[2]; vs CF group, not significant
  ADFC rate, increase: 11%
  ADG, increase: 9%
  body weight (BW), increase: 6%
[3]; [14]
  Body composition: Ash: 2.34 ± .06 % BW
  Body composition: Fat: 13.6 ± .88 % BW
  Body composition: Protein: 18.1 ± .21 % BW
  Body composition: Water: 65.5 ± .73 % BW
[3]; vs CF group
  body fat content, increase: 12%
[4]
  average plasma T3 level: 3 ng/mL
[4]; Group 1, dietary
  I/G Molar Ratio: 1.68
  plasma Glucagon (G): 295 pg/mL
  plasma Insulin (I): 814 pg/mL

## O=C(O)Cc1cc(I)c(Oc2cc(I)c(O)c(I)c2)c(I)c1 [Tetrac]
receptor
  metabolic activity of thyroid hormones: most active compounds of formula I

## O=C(O)Cc1cc(I)c(Oc2ccc(O)c(I)c2)c(I)c1 [Triac]
receptor
  metabolic activity of thyroid hormones: most active compounds of formula I

## GRF: GH-releasing factor; human GRF is a 44 amino acid polypeptide hormone (YADAIFTNSYRKVLGQLSARKLLQDIMSRQQGESNQERGARARL-NH2; ends and bridges not checked; UniProt P01286 32-75, looked up)
[7]
  plasma GH levels: elevated plasma GH levels
  growth rate and feed efficiency: failed to stimulate growth rate or improve feed efficiency

## glucagon
[8]
  biological and metabolic activity in chickens: the same biological and metabolic activity as endogenous glucagon

B1: GH: Purified natural chicken growth hormone (ncGH) (protein, UniProt P08998 26-216, looked up)
Somatotropin: TFPAMPLSNLFANAVLRAQHLHLLAAETYKEFERTYIPEDQRYTNKNSQAAFCYSETIPAPTGKDDAQQKSDMELLRFSLVLIQSWLTPVQYLSKVFTNNLVFGTSDRVFEKLKDLEEGIQALMRELEDRSPRGPQLLRPTYDKFDIHLRNEDALLKNYGLLSCFKKDLHKVETYLKVMKCRRFGESNCTI
[9]; [15]
  ADFC: 115.4 ± 3.5 g/bird/day
  FTG: 2.18 ± .05 kg feed/kg gain
[9]; 1 ppm T3 in feed and/or ncGH 100 μg/kg/day i.m., 3 to 6 weeks, mean ±SEM of 3 pens
  ADG: 53.0 ± 2.8 g/bird/day
[9]; 21 days
  effect on ADG, ADFC and FTG ratio: not affected
[1]
  effect on protein:fat ratio: seemed to decrease the protein:fat ratio
[2]; [16]
  ADFC (average daily feed consumption): 115.8 ± 1.8 g/bird/day
  ADG (average daily weight gain): 57.0 ± 0.4 g/bird/day
  FTG (feed-to-gain ratio): 2.03 ± .02 kg feed/kg gain
[2]; Group 2: daily i.m. 100 ug ncGH/kg with CF, 1 ppm T3, 1 ppm T4 or 5 ppm TRH in feed, 3 to 6 weeks
  BW (body weight): 1.83 ± .04 kg
[2]; vs FTG ratio of CF+BI group (P<0.05)
  feed efficiency, improvement: 9%
[10]; 1 ppm T3 and/or ncGH 100 μg/kg/day, 6 weeks-of-age, N = 12
  Body Weight (BW), final: 1.88 ± .051 kg
[10]; 6 weeks-of-age
  effect on final body weight, relative liver weight, abdominal fat: did not affect growth performance, final body weight, relative liver weight or abdominal fat content
[10]; N = 12
  Abdominal Fat, relative weight: 2.56 ± .178 % BW
  Body composition: Ash: 2.23 ± .058 % BW
  Body composition: Fat: 15.9 ± .32 % BW
  Body composition: Protein: 17.0 ± .17 % BW
  Body composition: Water: 63.7 ± .33 % BW
  Liver, relative weight: 2.74 ± .102 % BW
[11]
  average plasma GH concentration, fold over pre-injection: 4 times
[3]; [16]
  Body composition: Ash: 2.20 ± .04 % BW
  Body composition: Fat: 14.5 ± .52 % BW
  Body composition: Protein: 18.1 ± .15 % BW
  Body composition: Water: 64.7 ± .51 % BW
[4]; 4 hours post-injection of 100 μg ncGH/kg BW, Group 2
  average plasma GH concentration: 62 ng/mL
[4]; 4 hours post-injection of 100 μg ncGH/kg BW, Group 2 (P<0.05)
  average plasma GH concentration, fold over pre-injection: 3 times
[4]; [16]
  I/G Molar Ratio: 2.28
  plasma Glucagon (G): 298 pg/mL
  plasma Insulin (I): 1107 pg/mL

B2: pGH: purified porcine growth hormone (pGH) (protein, UniProt P01248 27-216, looked up)
Somatotropin: FPAMPLSSLFANAVLRAQHLHQLAADTYKEFERAYIPEGQRYSIQNAQAAFCFSETIPAPTGKDEAQQRSDVELLRFSLLLIQSWLGPVQFLSRVFTNSLVFGTSDRVYEKLKDLEEGIQALMRELEDGSPRAGQILKQTYDKFDTNLRSDDALLKNYGLLSCFKKDLHKAETYLRVMKCRRFVESSCAF
[12]
  carcass fat content, reduction: 18-25%
  feed conversion, improvement: 7-19%
  growth rate, increase: 10-14%
  muscle mass, increase: 24-36%
